Read-outs that look alike come from different tables or passages of the source.

What all share (assay type): cell-based
The subject of assay [1] is IKZF2. Put plainly: GFP-IKZF2 cellular degradation assay (eGFP fusion/mCherry reporter, Flip-In 293 cells). Conditions: Flip-In 293 cells stably expressing IKZF2 GFP fusion with mCherry reporter, 5 h. On the procedure:
IKZF1A and IKZF2A were subcloned into mammalian pcDNA5/FRT Vector (Ampicillin and Hygromycin B resistant) modified to contain MCS-eGFP-P2A-mCherry. Stable cell lines expressing eGFP-protein fusion and mCherry reporter were generated using Flip-In 293 system. Plasmid (0.3 μg) and pOG44 (4.7 μg) DNA were preincubated in 100 μL of Opti-MEM™ I (Gibco™, Life Technologies™) media containing 0.05 mg/mL Lipofectamine™ 2000 (Invitrogen™) for 20 min and added to Flip-In 293 cells containing 1.9 mL of DMEM media (Gibco™, Life Technologies™) per well in a 6-well plate format (Falcon, 353046). Cells were propagated for 48 h and were then transferred into a 10 cm^2 plate (Corning, 430165) in DMEM media containing 50 μg/mL of Hygromycin B (REF 10687010, Invitrogen™) as a selection marker. Following 2-3 passage cycle, FACS (FACSAria™ II, BD) was used to enrich for cells expressing eGFP and mCherry.
(§1) Cells stably expressing the IKZF1A, or IKZF2A GFP fusions with mCherry reporter were seeded at 30-50% confluency in 384-well plates with 50 μL FluoroBrite™ DMEM media (Thermo Fisher Scientific™ A18967) containing 10% FBS per well a day before compound treatment. Compound titrations were dispensed using a D300e Digital Dispenser (HP), normalized to 0.5% DMSO, and incubated with cells for 5 hours.
(§2) The assay plate was imaged immediately using an Acumen High Content Imager (TTP Labtech) with 488 nm and 561 nm lasers in […] per well format. The resulting images were analyzed using CellProfiler (Carpenter et al., Genome Biol. 2006, 7:R100). A series of image analysis steps (‘image analysis pipeline’) was constructed. First, the red and green channels were aligned and cropped to target the middle of each well (to avoid analysis of heavily clumped cells at the edges), and a background illumination function was calculated for both red and green channels of each well individually and subtracted to correct for illumination variations across the 384-well plate from various sources of error. An additional step was then applied to the green channel to suppress the analysis of large auto fluorescent artifacts and enhance the analysis of cell specific fluorescence by way of selecting for objects under a given size, 30 A.U., and with a given shape, speckles. mCherry-positive cells were then identified in the red channel filtering for objects between 8-60 pixels in diameter and using intensity to distinguish between clumped objects. The green channel was then segmented into GFP positive and negative areas and objects were labeled as GFP positive if at least 40% of it overlapped with a GFP positive area. The fraction of GFP-positive cells/mCherry-positive cells in each well was then calculated, and the green and red images were rescaled for visualization. The concentrations that lead to half degradation at 5 h (DC50, 5h) were calculated using the nonlinear fit variable slope model (GraphPad Software).

Assay [2] concerns the target T1, IKZF2 (Homo sapiens, UniProt Q96SW2+Q9UKS7).
T1 construct: knocked into the endogenous IKZF2 or IKZF1 locus of Molt4 cells; endogenous in cells; host or cells: Molt4 (CRISPR/Cas9 HiBit knock-in)
Put plainly: HiBit-IKZF2 degradation assay in Molt4 cells. On the procedure:
(§3) The HiBit tag was knocked into the endogenous IKZF2 or IKZF1 locus of Molt4 cells to generate a HiBit-IKZF2 or HiBit-IKZF1 fusion proteins via CRISPR/Cas9 gene editing. Cells were then treated with a 12 point concentration curve of the indicated compounds, and luminescence (corresponding to Helios abundance) was detected after 6 hours using the Nano-Glo® HiBit Lytic Detection system (Promega™). The concentration necessary to achieve 50% degradation (DC50) was calculated using Prism (GraphPad).
On the technique in general: HiBiT is a short tag that completes a luciferase, so light tracks the accessible tagged protein.

The target of another assay is T2, Helios (Homo sapiens, UniProt Q96SW2+Q9UKS7).
T2 construct: Immunoblots for Ikaros, Helios, and Actin from wildtype Jurkat cells; endogenous in cells; host or cells: wild-type Jurkat cells
In words: Degradation in Jurkat cells (immunoblot). Conditions: 4 hours, indicated concentrations. The protocol: Cells were lysed in M-PER® buffer (Thermo Scientific) containing protease/phosphatase inhibitor cocktail (Roche). Protein concentration was measured using a BCA assay (Pierce™). Equivalent amounts of each sample were loaded on 4-12% Bis-Tris gels (Invitrogen™), transferred to nitrocellulose membranes, and immunoblotted with the indicated antibodies. IRDye®800-labeled goat anti-rabbit IgG and IRDye®680-labeled goat anti-mouse IgG (LI-COR®) secondary antibodies were purchased from LI-COR®, and membranes were detected on an Odyssey® detection system (LI-COR® Biosciences).
Immunoblots for Ikaros, Helios, and Actin from wildtype Jurkat cells treated with compound 36 or 65 for 4 hours at the indicated concentrations were generated (FIG. 1).
For orientation: A western blot detects proteins with antibodies after separation by electrophoresis.

Assay [3] has as its target T3, IKZF1 (Homo sapiens, UniProt Q13422+Q96SW2).
T3 construct: knocked into the endogenous IKZF2 or IKZF1 locus of Molt4 cells; endogenous in cells; host or cells: Molt4 (CRISPR/Cas9 HiBit knock-in)
In words: HiBit-IKZF1 degradation assay in Molt4 cells. The protocol:
as §3

For assay [4], the target named is T4, IKZF1 (Homo sapiens, UniProt Q13422).
T4 construct: expressed in transfected cells
Put plainly: GFP-IKZF1 cellular degradation assay (eGFP fusion/mCherry reporter, Flip-In 293 cells). On the procedure:
IKZF1A and IKZF2A were subcloned into mammalian pcDNA5/FRT Vector (Ampicillin and Hygromycin B resistant) modified to contain MCS-eGFP-P2A-mCherry. […] Following 2-3 passage cycle, FACS (FACSAria™ II, BD) was used to enrich for cells expressing eGFP and mCherry.
as §1
as §2, with “The resulting images were analyzed using CellProfiler (Carpenter et al., Genome Biol. 2006, 7:R100).” left out

T4 sequence (Q13422 83-213 isoform Q13422-7 limits assumed): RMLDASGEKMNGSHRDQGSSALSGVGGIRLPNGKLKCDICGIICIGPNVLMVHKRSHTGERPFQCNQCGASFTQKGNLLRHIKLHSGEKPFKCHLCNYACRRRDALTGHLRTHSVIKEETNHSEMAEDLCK
T4 sequence (Q96SW2 whole entry partner): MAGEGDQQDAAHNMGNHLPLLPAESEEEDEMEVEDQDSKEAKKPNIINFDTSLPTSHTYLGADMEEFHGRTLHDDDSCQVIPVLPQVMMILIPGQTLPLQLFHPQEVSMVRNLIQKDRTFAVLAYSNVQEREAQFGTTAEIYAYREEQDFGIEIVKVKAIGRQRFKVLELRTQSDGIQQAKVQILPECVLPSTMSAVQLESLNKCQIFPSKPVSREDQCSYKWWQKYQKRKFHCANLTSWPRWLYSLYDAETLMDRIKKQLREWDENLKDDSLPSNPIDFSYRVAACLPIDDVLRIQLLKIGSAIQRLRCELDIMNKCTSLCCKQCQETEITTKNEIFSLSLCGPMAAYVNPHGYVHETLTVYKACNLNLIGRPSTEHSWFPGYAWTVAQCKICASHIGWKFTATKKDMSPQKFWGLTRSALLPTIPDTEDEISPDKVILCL
T4 sequence (Q16531 whole entry partner): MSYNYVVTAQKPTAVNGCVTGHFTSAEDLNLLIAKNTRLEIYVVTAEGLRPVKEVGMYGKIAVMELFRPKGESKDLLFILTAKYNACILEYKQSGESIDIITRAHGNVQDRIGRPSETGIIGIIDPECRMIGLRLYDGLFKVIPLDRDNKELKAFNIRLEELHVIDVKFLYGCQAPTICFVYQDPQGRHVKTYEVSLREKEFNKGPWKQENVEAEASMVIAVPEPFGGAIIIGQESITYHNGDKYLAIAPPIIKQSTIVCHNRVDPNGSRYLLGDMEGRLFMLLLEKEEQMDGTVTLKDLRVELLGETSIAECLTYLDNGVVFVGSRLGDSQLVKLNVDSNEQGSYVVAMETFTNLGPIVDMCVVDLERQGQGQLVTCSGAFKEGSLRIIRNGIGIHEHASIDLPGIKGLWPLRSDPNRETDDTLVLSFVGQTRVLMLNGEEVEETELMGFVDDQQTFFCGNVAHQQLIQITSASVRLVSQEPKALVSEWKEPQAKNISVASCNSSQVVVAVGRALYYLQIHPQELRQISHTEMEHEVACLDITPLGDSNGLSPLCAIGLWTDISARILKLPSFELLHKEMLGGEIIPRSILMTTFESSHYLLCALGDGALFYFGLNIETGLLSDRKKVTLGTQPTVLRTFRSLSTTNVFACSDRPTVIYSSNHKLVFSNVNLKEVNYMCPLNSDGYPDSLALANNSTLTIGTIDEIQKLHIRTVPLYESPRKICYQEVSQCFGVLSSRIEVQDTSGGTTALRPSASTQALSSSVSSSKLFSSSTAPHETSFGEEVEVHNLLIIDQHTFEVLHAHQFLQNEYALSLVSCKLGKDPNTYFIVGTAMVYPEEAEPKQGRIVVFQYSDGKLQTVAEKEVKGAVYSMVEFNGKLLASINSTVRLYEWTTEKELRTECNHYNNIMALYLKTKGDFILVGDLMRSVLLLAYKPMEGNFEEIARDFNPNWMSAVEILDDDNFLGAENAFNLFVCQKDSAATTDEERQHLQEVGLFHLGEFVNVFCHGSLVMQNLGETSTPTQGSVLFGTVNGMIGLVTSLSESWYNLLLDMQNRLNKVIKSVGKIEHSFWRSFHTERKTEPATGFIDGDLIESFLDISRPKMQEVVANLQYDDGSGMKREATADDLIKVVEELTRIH
T3 sequence (Q13422 whole entry): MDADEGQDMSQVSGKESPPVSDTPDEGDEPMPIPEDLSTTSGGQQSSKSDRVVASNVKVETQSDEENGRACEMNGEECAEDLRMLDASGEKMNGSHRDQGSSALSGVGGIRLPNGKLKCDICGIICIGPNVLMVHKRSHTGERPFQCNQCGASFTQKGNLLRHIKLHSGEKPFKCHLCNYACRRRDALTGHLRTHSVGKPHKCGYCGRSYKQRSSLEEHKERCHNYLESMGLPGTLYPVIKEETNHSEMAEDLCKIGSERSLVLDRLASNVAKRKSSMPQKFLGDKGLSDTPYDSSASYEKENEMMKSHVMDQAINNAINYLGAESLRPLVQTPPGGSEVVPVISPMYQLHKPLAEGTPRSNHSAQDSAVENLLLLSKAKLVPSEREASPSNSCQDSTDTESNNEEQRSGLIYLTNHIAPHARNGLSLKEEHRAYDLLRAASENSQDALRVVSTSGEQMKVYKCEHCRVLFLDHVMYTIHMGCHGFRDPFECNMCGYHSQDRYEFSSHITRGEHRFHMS
T3 sequence (Q96SW2 whole entry): as the sequence (Q96SW2 whole entry partner) above
T3 sequence (Q16531 whole entry partner): as the sequence (Q16531 whole entry partner) above
T1 sequence (Q9UKS7 whole entry): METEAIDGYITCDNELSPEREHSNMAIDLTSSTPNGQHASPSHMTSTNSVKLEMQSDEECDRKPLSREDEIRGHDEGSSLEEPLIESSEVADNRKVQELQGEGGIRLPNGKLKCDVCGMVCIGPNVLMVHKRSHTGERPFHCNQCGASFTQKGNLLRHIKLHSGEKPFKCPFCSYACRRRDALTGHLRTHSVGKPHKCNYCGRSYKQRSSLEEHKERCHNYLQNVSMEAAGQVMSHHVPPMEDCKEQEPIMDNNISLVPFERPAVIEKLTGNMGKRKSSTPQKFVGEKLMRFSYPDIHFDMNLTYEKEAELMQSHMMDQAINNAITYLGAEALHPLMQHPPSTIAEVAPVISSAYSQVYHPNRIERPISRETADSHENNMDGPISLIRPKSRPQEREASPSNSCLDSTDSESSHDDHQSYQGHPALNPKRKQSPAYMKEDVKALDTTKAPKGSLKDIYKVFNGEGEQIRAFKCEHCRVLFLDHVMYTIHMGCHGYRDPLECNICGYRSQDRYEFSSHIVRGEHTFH
T1 sequence (Q96SW2 whole entry): as the sequence (Q96SW2 whole entry partner) above
T1 sequence (Q16531 whole entry partner): as the sequence (Q16531 whole entry partner) above
T2 sequence (Q9UKS7 whole entry): as the sequence (Q9UKS7 whole entry) above
T2 sequence (Q96SW2 whole entry): as the sequence (Q96SW2 whole entry partner) above
T2 sequence (Q16531 whole entry partner): as the sequence (Q16531 whole entry partner) above

As usually defined, the DC50 is the concentration giving 50% degradation. As for `CC(C)(NCCc1cccc(C(F)(F)F)c1)c1cccc(NC2=CC(=O)N(C3CCC(=O)NC3=O)C2=O)c1` (stereo not shown) [Compound 65, 3-(2,5-dioxo-3-((3-(2-((3-(trifluoromethyl)phenethyl)amino)propan-2-yl)phenyl)amino)-2,5-dihydro-1H-pyrrol-1-yl)piperidine-2,6-dione], the DC50 in the assay with IKZF2 [1] is 3.6 nM; at IKZF2 [2] (read-out: IKZF2 DC50; Molt4 cells with endogenous HiBit-IKZF2 knock-in, 6 hours, Nano-Glo HiBit luminescence), 17 nM; at IKZF1 [3] (read-out: IKZF1 DC50; Molt4 cells with endogenous HiBit-IKZF1 knock-in, 6 hours, Nano-Glo HiBit luminescence), 18 nM; on IKZF1 [4] (read-out: GFP IKZF1 DC50; Flip-In 293 cells stably expressing IKZF1 GFP fusion with mCherry reporter, 5 h), 5.1 nM. Also, at Helios, the “Helios degradation (immunoblot, FIG. 1)” value was “Helios degradation”.
For the compound `CN(C)C(CC(=O)Nc1cccc(C(F)(F)F)c1)c1cccc(NC2=CC(=O)N(C3CCC(=O)NC3=O)C2=O)c1` (stereo not shown) [Compound 36, 3-(dimethylamino)-3-(3-((1-(2,6-dioxopiperidin-3-yl)-2,5-dioxo-2,5-dihydro-1H-pyrrol-3-yl)amino)phenyl)-N-(3-(trifluoromethyl)phenyl)propanamide], the DC50 in the assay on IKZF2 [1] is 2.3 nM; at IKZF2 [2] (Molt4 cells with endogenous HiBit-IKZF2 knock-in, 6 hours, Nano-Glo HiBit luminescence; read-out: IKZF2 DC50), 2.5 nM; on IKZF1 [3] (Molt4 cells with endogenous HiBit-IKZF1 knock-in, 6 hours, Nano-Glo HiBit luminescence; read-out: IKZF1 DC50), 15 nM; at IKZF1 [4] (Flip-In 293 cells stably expressing IKZF1 GFP fusion with mCherry reporter, 5 h; read-out: GFP IKZF1 DC50), 5.4 nM. Besides, the “Helios degradation (immunoblot, FIG. 1)” value at Helios was “Helios degradation”.

Values taken from patent publication US20230192644A1, “PIPERIDINE-2,6-DIONES AS SMALL MOLECULE DEGRADERS OF HELIOS AND METHODS OF USE” (DANA-FARBER CANCER INSTITUTE, INC., priority 2020, published 2023).
